Results from paper PMC6331789, “Phytochemicals from Ruta graveolens Activate TAS2R Bitter Taste Receptors and TRP Channels Involved in Gustation and Nociception” (Molecules, 2015).
Entries after “also recorded” stand apart in the source; their conditions may differ. Read-outs that look alike come from different tables or passages of the source.

Columns and labels:
TAS2R14 = biological target: T1, TAS2R14 (Homo sapiens, UniProt Q9NYV8); test: In vitro calcium imaging assay on cloned TAS2R14 in transfected HEK293T cells; assay type: cell-based; details: for TAS2R14 screening result: single dose, qualitative
T1 construct: expressed in transfected cells; host or cells: HEK293T
T1 sequence (Q9NYV8 1-317): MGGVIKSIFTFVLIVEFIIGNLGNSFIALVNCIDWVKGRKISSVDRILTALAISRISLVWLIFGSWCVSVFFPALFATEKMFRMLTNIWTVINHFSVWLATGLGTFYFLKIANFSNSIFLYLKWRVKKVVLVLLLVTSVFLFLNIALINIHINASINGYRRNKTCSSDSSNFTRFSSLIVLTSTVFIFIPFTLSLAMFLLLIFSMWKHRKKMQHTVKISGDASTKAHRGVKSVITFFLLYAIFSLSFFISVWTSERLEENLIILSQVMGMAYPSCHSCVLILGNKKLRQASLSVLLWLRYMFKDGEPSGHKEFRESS
Text: (§1) Pure phytochemicals were submitted to in vitro assays with a platform of twenty cloned receptors of the bitter taste TAS2R family and four receptors of the TRP family related to the perception of taste and somatosensory sensations. All experiments have been repeated three times, each time with four replicates. […] For simplicity, only those bitter taste receptors having reproducible positive assay, namely TASR10, 14 and 49, are reported (Table 1).
(§2) For those compounds showing activity on one or more receptor(s), the concentration/response curves were plotted and the EC50 calculated.
(§3) For the biological tests, several compounds were purchased as references from different suppliers (Sigma Aldrich, ChromaDex, Irvine, CA, USA, and Tocris Bioscience, Bristol, UK) and dissolved in assay buffer (130 mM NaCl, 5 mM KCl, 1 mM MgCl2, 2 mM CaCl2, 5 mM NaHCO3 and 20 mM HEPES, pH 7.4) or in a mixture of assay buffer and DMSO, never exceeding a final DMSO concentration of 0.5% (v/v) to avoid toxic effects and possible artefacts on transfected cells.
(§4) All human TAS2R and G15Gi1 cDNAs were produced as reported in Bassoli et al. cDNAs for human TRPA1-M5-M8-V1-V4 were cloned into a pcDNA6 expression vector (Invitrogen-Thermo Fisher, Waltham, MA, USA).
(§5) All experiments were performed using HEK293T cells (ATCC).
(§6) For the bitter platform experiments, cells were cultured, transfected and analyzed as previously described.
(§7) For the bitter platform experiments, data analyses were performed as previously described.
(§8) For the calculation of concentration-response curves, responses were calculated as the difference between maximal and minimal relative fluorescence unit (RFU) values in a selected time window (11–60 s) and were normalized to the basal well fluorescence (Time Point 1, before compound injection) in order to compensate for differences in cell density (∆F/F0). All of the experiments have been repeated three times, each time with four replicates. All of the results are averages of at least four replicates. Raw data are available in Supplementary Material, Figures S3–S6.

TAS2R49 = biological target: T2, TAS2R49 (Homo sapiens, UniProt P59543); test: In vitro calcium imaging assay on cloned TAS2R49 in transfected HEK293T cells; assay type: cell-based; details: for TAS2R49 screening result: single dose, qualitative
T2 construct: expressed in transfected cells; host or cells: HEK293T
T2 sequence (P59543 1-309): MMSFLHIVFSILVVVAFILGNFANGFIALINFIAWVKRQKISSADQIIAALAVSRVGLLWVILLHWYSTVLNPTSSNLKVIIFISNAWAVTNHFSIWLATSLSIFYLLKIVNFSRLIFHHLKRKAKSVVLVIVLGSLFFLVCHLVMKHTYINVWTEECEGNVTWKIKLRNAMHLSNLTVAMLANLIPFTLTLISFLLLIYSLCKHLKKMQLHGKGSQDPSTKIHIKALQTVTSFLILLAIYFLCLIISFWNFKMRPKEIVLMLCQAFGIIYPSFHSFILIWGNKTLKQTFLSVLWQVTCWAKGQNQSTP
Text: as §1, §2, §3, §4, §5, §6, §7, §8

TRPA1 = biological target: T3, TRPA1 (Homo sapiens, UniProt O75762); test: In vitro Fluo8-NW calcium assay (FLIPR) on HEK293T cells stably overexpressing TRPA1; assay type: cell-based; details: for TRPA1 screening result: single dose, qualitative
T3 construct: expressed in transfected cells
Text: Pure phytochemicals were submitted to in vitro assays with a platform of twenty cloned receptors of the bitter taste TAS2R family and four receptors of the TRP family related to the perception of taste and somatosensory sensations. All experiments have been repeated three times, each time with four replicates.
as §2, §3, §4, §5
(§9) For TRP platform experiments, cells were cultured in MEM/EBSS medium (ECB2071L EuroClone, Milan, Italy) plus 10% (v/v) fetal bovine serum (FBS) (26400-044 Gibco, Karlsruhe, Germany) and 1% (v/v) Pen/Strep 10K/10K stock (17-602E Lonza, Basel, Switzerland). Stable cell lines were generated overexpressing each TRP channel, and clones were selected with 500 µg/mL of G418 (ant-gn-5 Invivogen, Karlsruhe, Germany). To analyze TRP receptor responses, cells were plated at a concentration of 20,000 cells/well in 384-well plates (GR-4330 Twin Helix srl, Milan, Italy). Cellular responses were measured 24 h after seeding.
(§10) For TRPA1-M8-V1-V4 experiments, a solution of Fluo8-NW calcium-sensitive dye (36316 AAT BioQuest, Sunnyvale, CA, USA) was prepared using the assaybuffer and diluting the kit components 1:2 according to the manufacturer’s instructions. Twenty-four hours after seeding, cells were incubated one hour at RT, loaded with 40 µL of Fluo8-NW solution for each well and incubated again for one hour at RT before data acquisition.
(§11) For TRPM5 experiments, cells were loaded 24 h after seeding with a Membrane Potential Dye (R8034 MDC) solution in assay buffer according to the manufacturer’s instructions and incubated at 37 °C for 1 h before acquisition. All experiments were performed using a fluorometric imaging plate reader (FLIPR^TETRA, Molecular Devices equipped with ICCD Camera from Stanford Photonics, INC, (Palo Alto, CA, USA) and kinetics were visualized with Molecular Devices’ Screenworks 3.0 (Sunnyvale, CA, USA).
as §8

TRPM8 = biological target: T4, TRPM8 (Homo sapiens, UniProt Q7Z2W7); test: In vitro Fluo8-NW calcium assay (FLIPR) on HEK293T cells stably overexpressing TRPM8; assay type: cell-based; details: for TRPM8 screening result: single dose, qualitative
T4 construct: expressed in transfected cells
Text: as §1, §2, §3, §4, §5, §9, §10, §11, §8

[1] = tested on: twenty TAS2R bitter taste receptors; test: In vitro screening on the platform of twenty cloned TAS2R bitter taste receptors; assay type: cell-based, human; details: at the tested concentration
Text: as §1, §3, §4, §5, §6, §7, §8

[2] = concentration/response curve, values with ≥ estimated, curve did not saturate, read-out: EC50 TAS2R14

T3 sequence (O75762 whole entry): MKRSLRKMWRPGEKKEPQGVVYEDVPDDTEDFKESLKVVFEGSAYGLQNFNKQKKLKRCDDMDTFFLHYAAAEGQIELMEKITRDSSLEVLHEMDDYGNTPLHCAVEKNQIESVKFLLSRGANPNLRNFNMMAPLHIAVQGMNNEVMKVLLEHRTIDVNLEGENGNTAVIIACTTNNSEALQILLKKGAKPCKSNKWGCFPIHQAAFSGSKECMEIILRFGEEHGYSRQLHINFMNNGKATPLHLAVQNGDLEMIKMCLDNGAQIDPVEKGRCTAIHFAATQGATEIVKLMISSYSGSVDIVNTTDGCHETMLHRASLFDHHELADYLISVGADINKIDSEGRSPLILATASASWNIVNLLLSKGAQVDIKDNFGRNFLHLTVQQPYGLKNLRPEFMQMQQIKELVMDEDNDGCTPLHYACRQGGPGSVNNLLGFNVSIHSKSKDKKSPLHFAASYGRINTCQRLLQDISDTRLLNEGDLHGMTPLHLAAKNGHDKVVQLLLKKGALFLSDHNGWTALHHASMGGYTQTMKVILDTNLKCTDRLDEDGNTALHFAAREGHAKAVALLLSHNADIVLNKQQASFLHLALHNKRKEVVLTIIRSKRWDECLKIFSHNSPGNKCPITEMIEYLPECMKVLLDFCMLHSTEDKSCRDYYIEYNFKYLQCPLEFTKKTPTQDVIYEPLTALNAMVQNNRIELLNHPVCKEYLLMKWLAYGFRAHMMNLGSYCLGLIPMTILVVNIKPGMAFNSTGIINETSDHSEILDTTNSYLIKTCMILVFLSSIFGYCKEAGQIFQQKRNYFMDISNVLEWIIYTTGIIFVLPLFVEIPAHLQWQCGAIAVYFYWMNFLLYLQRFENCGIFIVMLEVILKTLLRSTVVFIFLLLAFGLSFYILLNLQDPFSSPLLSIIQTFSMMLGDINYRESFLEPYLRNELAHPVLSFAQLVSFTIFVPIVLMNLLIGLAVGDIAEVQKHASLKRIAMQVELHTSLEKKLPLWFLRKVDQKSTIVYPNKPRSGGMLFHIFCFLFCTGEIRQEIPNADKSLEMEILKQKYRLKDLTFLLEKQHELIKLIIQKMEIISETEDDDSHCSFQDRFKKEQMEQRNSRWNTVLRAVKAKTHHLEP
T4 sequence (Q7Z2W7 whole entry): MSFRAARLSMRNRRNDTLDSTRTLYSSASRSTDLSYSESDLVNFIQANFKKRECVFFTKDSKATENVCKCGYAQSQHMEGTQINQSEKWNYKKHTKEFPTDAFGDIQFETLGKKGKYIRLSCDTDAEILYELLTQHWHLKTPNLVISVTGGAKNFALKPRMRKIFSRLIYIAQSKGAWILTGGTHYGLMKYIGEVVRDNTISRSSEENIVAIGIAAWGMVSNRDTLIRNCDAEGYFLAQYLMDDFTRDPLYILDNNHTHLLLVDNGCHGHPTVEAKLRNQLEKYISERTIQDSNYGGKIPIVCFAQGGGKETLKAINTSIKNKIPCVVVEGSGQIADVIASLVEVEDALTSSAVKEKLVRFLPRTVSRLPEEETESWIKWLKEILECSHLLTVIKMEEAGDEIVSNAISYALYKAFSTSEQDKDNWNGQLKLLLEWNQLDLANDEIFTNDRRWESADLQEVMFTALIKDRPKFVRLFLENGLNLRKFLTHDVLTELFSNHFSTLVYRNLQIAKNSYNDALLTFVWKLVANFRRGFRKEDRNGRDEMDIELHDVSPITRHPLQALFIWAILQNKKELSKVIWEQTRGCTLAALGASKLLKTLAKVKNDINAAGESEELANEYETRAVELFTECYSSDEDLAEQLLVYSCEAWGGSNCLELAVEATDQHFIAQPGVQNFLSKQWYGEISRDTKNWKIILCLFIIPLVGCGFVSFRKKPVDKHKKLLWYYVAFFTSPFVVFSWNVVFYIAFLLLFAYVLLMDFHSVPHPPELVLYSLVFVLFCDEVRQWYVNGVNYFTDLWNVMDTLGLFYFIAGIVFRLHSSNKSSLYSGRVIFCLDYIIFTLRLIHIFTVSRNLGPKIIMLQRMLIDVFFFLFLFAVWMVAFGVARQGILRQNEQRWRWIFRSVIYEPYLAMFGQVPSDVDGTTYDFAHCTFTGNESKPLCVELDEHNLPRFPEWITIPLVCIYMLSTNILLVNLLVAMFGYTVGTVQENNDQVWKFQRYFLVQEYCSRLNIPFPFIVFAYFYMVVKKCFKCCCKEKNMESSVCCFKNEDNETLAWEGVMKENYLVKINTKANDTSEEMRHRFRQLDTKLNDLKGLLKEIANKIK

Compound | TAS2R14 screening result (TAS2R14) | TAS2R49 screening result (TAS2R49) | TRPA1 screening result (TRPA1) | TRPM8 screening result (TRPM8) | Response on the twenty TAS2R receptors (in words) [1] | Activity on TRPA1 (in words) (TRPA1) | Activity on TRPM8 (in words) (TRPM8) | Activity on TAS2R14 (in words) (TAS2R14) | EC50 (TAS2R14; [2]) | EC50 (TRPA1) | EC50 (TAS2R14) | Activity on TAS2R49 (in words) (TAS2R49) | EC50 (TAS2R49) | EC50 (TRPA1; concentration/response curve, values with ≥ estimated, n.d. = non detectable, read-out: EC50 TRPA1)
CCCCCCCCCC(C)=O [Compound 9, 2-undecanone] | − | − | − | − | inactive |  |  |  |  |  |  |  |  | 
C=CC(C)(C)c1cc2cc3c(cc2oc1=O)OC(C(C)(C)OC(C)=O)C3 (centres unmarked) [Compound 2, rutamarin] | − | − | − |  |  | did not activate | strong antagonist |  |  |  |  |  |  | 
COc1c2ccoc2c(OC)c2oc(=O)ccc12 [Compound 5, isopimpinellin] | + | − | + | − |  | agonists |  | responded | 11.1 µM | ≥ 22.8 µM |  |  |  | 
CCCCCCCC(C)=O [Compound 10, 2-nonanone] | − | − | − | − | inactive |  |  |  |  |  |  |  |  | 
COc1cc2nc3occc3c(OC)c2cc1OC [Compound 7, kokusaginin] | − | − | − | − | did not respond |  |  |  |  |  |  |  |  | 
COc1ccc2c(OC)c3ccoc3nc2c1OC [Compound 8, skimmianine] | + | − | − | − |  |  |  | selectively activate | ≥ 15.8 µM |  |  |  |  | 
COc1c2occc2cc2ccc(=O)oc12 [Compound 4, xanthotoxin] | + | ++ | + | − |  | agonists |  |  |  |  | ≥ 10.8 µM | responded; also recorded: able to activate | 12 µM | ≥ 19.7 µM
C[C@@H]1O[C@@H](OC[C@H]2O[C@@H](Oc3c(-c4ccc(O)c(O)c4)oc4cc(O)cc(O)c4c3=O)[C@H](O)[C@@H](O)[C@@H]2O)[C@H](O)[C@H](O)[C@H]1O [Compound 1, rutin] | − | − | − | − | inactive |  |  |  |  |  |  |  |  | 
COc1c2ccoc2cc2oc(=O)ccc12 [Compound 3, bergapten] | − | − | − | − |  |  |  | inactive |  |  |  |  |  | 
